Test results as given in patent publication US20180273528A1 (LES LABORATOIRES SERVIER, priority 2015, published 2018).

Columns and labels:
DYRK1A [1] = molecular target: T1, DYRK1A (Homo sapiens, UniProt Q13627); experiment: Cellular DYRK1 autophosphorylation assay in U2-OS cells; assay type: cell-based; design: full-length, wild-type human DYRK1A (NM_001396) with an HA tag; expressed in transfected cells; host or cells: human U2-OS osteosarcoma cells, transient transfection of a pcDNA3.1 plasmid; settings: U2-OS cells transfected with HA-tagged human DYRK1A, 5 hours exposure; read-out: IC50 (μM) P-Ser520-Dyrk1A -Cell assay
Procedure, shortened: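 U2-OS cells treated with a compound concentration range for 5 h. Phospho-Ser520-DYRK1A measured by western blot densitometry or Mesoscale ELISA. IC50 from dose-response curves; for blots, ratio of phospho-Ser520 to total DYRK1A signal.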

DYRK1B = molecular target: T2, DYRK1B (Homo sapiens, UniProt Q9Y463); experiment: Kinase TR-FRET assay, DYRK1B; assay type: biochemical; settings: full-length human kinase, 10 μM ATP
T2 construct: full-length human kinases from Carna Biosciences; purchased Carna Biosciences 04-131
T2 sequence (Q9Y463 whole entry): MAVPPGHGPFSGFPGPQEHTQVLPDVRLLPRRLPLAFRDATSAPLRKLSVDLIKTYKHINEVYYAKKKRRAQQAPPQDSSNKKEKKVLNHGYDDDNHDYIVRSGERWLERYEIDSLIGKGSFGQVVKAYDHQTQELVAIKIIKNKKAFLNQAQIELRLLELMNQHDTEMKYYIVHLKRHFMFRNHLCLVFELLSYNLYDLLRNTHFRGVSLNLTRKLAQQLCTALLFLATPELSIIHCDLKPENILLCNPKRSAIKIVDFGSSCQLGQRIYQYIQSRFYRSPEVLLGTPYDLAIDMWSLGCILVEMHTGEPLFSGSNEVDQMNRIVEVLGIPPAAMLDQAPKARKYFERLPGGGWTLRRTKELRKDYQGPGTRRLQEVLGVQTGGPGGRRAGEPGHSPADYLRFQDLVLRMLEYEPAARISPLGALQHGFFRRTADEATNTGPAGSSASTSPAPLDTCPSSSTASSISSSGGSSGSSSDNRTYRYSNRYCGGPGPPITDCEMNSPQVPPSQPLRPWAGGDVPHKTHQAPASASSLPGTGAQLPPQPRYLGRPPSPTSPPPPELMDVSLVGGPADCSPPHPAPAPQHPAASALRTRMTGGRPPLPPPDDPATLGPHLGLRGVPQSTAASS
Procedure, shortened: (§1)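 Compounds tested at 0.1 nM to 30 μM in reaction buffer; reaction stopped with 10 mM EDTA. Phosphorylated MBP detected with 1 nM Europium-labelled anti-phospho-Thr232 antibody by TR-FRET.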

CLK1 = molecular target: T3, CLK1 (Homo sapiens, UniProt P49759); experiment: Kinase TR-FRET assay, CLK1; assay type: biochemical; settings: full-length human kinase, 10 μM ATP
T3 construct: full-length human kinases from Carna Biosciences; purchased Carna Biosciences 04-126
T3 sequence (P49759 1-526 isoform P49759-3): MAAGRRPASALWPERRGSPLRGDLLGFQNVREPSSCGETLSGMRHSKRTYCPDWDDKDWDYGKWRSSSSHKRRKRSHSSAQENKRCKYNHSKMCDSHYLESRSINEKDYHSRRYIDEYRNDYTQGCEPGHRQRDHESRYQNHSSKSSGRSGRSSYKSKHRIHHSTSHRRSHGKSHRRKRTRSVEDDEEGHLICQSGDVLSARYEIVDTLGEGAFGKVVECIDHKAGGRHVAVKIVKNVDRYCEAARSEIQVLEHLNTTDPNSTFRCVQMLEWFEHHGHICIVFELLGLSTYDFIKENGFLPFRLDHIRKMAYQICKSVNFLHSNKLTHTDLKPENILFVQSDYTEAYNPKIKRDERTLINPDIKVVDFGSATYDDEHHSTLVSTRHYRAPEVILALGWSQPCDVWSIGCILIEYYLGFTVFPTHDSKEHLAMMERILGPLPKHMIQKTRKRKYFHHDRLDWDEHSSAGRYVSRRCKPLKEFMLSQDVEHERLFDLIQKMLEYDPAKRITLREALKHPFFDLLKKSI
Description: Inhibition of the enzymatic activity of human kinases was evaluated in a Time-Resolved Fluorescence Resonance Energy Transfer (TR-FRET) assay in 384-well reaction plates. […] Test compounds of the invention were added in reaction buffer at a range of concentrations from 0.1 nM to 30 μM. Following addition of EDTA (Sigma E7889, 10 mM) to stop the reaction, Europium-labelled mouse monoclonal antibody recognizing phospho-Thr232 in MBP (Perkin Elmer TRF0201, 1 nM) was added.

[2] = molecular target: T4, His-TEV-DYRK1A Kinase domain (aa127-485) (Homo sapiens, UniProt Q13627); experiment: Kinase ADP assay (ADP Hunter), DYRK1A kinase domain; assay type: biochemical; settings: 20 μM ATP
T4 construct: His-TEV-DYRK1A Kinase domain (aa127-485); His tag (N); TEV protease cleavage site (N)
Procedure, shortened: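 Compounds incubated 10 min at 30 °C with 20 nM enzyme, 40 μM peptide substrate and 20 μM ATP in pH 7.4 Hepes buffer with 10 mM MgCl2. ADP formed detected by ADP Hunter Plus reagents after 20 min at 30 °C, fluorescence read at 590 nm.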

CDK9 = molecular target: T5, CDK9 (Homo sapiens, UniProt P50750); experiment: Kinase TR-FRET assay, CDK9; assay type: biochemical; settings: full-length human kinase, 10 μM ATP
T5 construct: full-length human kinases from Carna Biosciences; purchased Carna Biosciences 04-110
T5 sequence (P50750 whole entry): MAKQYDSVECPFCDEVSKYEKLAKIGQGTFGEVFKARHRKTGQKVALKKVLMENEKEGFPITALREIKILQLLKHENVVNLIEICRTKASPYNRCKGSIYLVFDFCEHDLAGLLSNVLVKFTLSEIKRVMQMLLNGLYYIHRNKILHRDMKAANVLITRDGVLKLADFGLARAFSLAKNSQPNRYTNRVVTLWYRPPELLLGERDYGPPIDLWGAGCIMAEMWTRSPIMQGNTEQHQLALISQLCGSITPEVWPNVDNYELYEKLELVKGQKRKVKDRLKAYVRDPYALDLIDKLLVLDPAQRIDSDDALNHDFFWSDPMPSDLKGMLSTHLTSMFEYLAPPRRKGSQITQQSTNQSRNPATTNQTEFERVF
T5 sequence (O60563 whole entry partner): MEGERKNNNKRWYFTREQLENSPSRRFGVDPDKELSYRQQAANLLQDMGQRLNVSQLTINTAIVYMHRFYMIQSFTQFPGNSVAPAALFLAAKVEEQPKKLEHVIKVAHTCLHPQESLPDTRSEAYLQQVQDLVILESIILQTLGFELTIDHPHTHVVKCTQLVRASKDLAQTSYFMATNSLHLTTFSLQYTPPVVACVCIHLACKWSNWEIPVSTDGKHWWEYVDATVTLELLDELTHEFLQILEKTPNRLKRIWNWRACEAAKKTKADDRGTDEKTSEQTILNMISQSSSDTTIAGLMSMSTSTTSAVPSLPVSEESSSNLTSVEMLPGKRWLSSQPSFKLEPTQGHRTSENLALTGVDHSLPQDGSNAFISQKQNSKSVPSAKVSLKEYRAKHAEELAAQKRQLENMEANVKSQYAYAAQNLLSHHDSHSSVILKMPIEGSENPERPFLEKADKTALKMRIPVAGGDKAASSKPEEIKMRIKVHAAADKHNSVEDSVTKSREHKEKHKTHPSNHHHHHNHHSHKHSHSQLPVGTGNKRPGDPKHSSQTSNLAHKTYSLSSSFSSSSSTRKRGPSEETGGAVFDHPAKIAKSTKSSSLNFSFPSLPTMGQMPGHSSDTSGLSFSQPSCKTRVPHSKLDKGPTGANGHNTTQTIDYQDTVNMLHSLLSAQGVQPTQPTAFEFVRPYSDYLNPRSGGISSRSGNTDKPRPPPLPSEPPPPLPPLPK
Procedure, shortened: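 Full-length human CDK9 (0.9 ng/μl) incubated 100 min at room temperature with 10 μM ATP, 100 nM ULight-MBP peptide and compound (0.1 nM–30 μM) in 50 mM HEPES pH 7.4, 1 mM EGTA, 10 mM MgCl2, 2 mM DTT, 0.01% Tween20. Stopped with 10 mM EDTA, then 1 nM Eu-anti-phospho-Thr232 MBP antibody added for 1 h. TR-FRET read at 665/620 nm with 340 nm excitation.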

DYRK1A [3] = molecular target: T1, DYRK1A; experiment: Kinase TR-FRET assay, DYRK1A; assay type: biochemical; design: full-length, wild-type human DYRK1A (NM_001396) with an HA tag; expressed in transfected cells; host or cells: human U2-OS osteosarcoma cells, transient transfection of a pcDNA3.1 plasmid; settings: full-length human kinase, 10 μM ATP
Procedure, shortened: as §1

IC50 (DYRK1A [1]) [µM]	IC50 (DYRK1B) [µM]	IC50 (CLK1) [µM]	IC50 [2] [µM]	IC50 (CDK9) [µM]	IC50 (DYRK1A [3]) [µM]	Compound
	0.013	0.083	0.074	> 3	0.016	Cc1nc2ccc(-c3cc(N)nc(N)c3)nc2n1C[C@H](C)Oc1ccccn1 (single isomer, unassigned) [Example 174]
0.131	0.016	0.04	0.02	> 3	0.007	Cc1nc2ccc(-c3cc(N)nc(N)c3)nc2n1C[C@@H](C)Oc1ccccn1 (single isomer, unassigned) [Example 175]
0.042	0.005	0.017	0.014	0.554	0.005	Cc1nc2ccc(-c3cc(N)nc(N)c3)nc2n1C[C@@H](C)Oc1cccc(Cl)n1 (single isomer, unassigned) [Example 177]
0.026	0.007	0.017	0.013	0.339	0.007	Cc1nc2ccc(-c3cc(N)nc(N)c3)nc2n1C[C@@H](C)Oc1cccc(F)n1 (single isomer, unassigned) [Example 189]
0.092		0.017	0.025			Cc1nc2ccc(-c3cc(N)nc(N)c3)nc2n1CCOc1ccc(F)cc1 [Example 198, 4-{3-[2-(4-fluorophenoxy)ethyl]-2-methyl-3H-imidazo[4,5-b]pyridin-5-yl}pyridine-2,6-diamine]
0.18		0.018	0.023			COc1cccc(OCCn2c(C)nc3ccc(-c4cc(N)nc(N)c4)nc32)c1 [Example 202, 4-{3-[2-(3-methoxyphenoxy)ethyl]-2-methyl-3H-imidazo[4,5-b]pyridin-5-yl}pyridine-2,6-diamine]
0.148		0.016	0.017			Cc1nc2ccc(-c3cc(N)nc(N)c3)nc2n1CCOc1ccccc1F [Example 203, 4-{3-[2-(2-fluorophenoxy)ethyl]-2-methyl-3H-imidazo[4,5-b]pyridin-5-yl}pyridine-2,6-diamine]
0.12		0.021	0.026			Cc1nc2ccc(-c3cc(N)nc(N)c3)nc2n1CCOc1ccc(Cl)cc1 [Example 207, 4-{3-[2-(4-chlorophenoxy)ethyl]-2-methyl-3H-imidazo[4,5-b]pyridin-5-yl}pyridine-2,6-diamine]
0.097		0.02	0.009			CCn1c(C#N)nc2ccc(-c3cc(N)nc(N)c3)nc21 [Example 223, 5-(2,6-diaminopyridin-4-yl)-3-ethyl-3H-imidazo[4,5-b]pyridine-2-carbonitrile]
0.057		0.02	0.009			N#Cc1nc2ccc(-c3cc(N)nc(N)c3)nc2n1C1CC1 [Example 224, 3-cyclopropyl-5-(2,6-diaminopyridin-4-yl)-3H-imidazo[4,5-b]pyridine-2-carbonitrile]
0.262		0.042	0.01			Cn1c(C#N)nc2ccc(-c3cc(N)nc(N)c3)nc21 [Example 227, 5-(2,6-diaminopyridin-4-yl)-3-methyl-3H-imidazo[4,5-b]pyridine-2-carbonitrile]

The remaining lines, values behind:

Compound	IC50 (DYRK1A [1]) [µM]	IC50 (DYRK1B) [µM]	IC50 (CLK1) [µM]	IC50 [2] [µM]	IC50 (CDK9) [µM]	IC50 (DYRK1A [3]) [µM]
Cc1nc2ccc(-c3cc(N)nc(N)c3)nc2n1C[C@H](C)Oc1ccccc1 (single isomer, unassigned) [Example 107]	0.111	0.007	0.037	0.012	> 3	0.008
Cc1nc2ccc(-c3cc(N)nc(N)c3)nc2n1C[C@H]1C[C@@H]1c1ccccc1 (single isomer, unassigned) [Example 109]	0.22	0.015	0.025	0.03	> 3	0.01
Cc1nc2ccc(-c3cc(N)nc(N)c3)nc2n1CC1Cc2ccccc21 (single isomer, unassigned) [Example 112, 4-[3-(bicyclo[4.2.0]octa-1,3,5-trien-7-ylmethyl)-2-methyl-3H-imidazo[4,5-b]pyridin-5-yl]pyridine-2,6-diamine]	0.09	0.014	0.025	0.005	2.62	0.006
C=CCCn1c(C)nc2ccc(-c3cc(N)nc(N)c3)nc21 [Example 14, 4-[3-(but-3-en-1-yl)-2-methyl-3H-imidazo[4,5-b]pyridin-5-yl]pyridine-2,6-diamine]	0.05	0.001	0.016	0.008	1.95	0.002
Cc1nc2ccc(-c3cc(N)nc(N)c3)nc2n1C1CCC1 [Example 23, 4-(3-cyclobutyl-2-methyl-3H-imidazo[4,5-b]pyridin-5-yl)pyridine-2,6-diamine]	0.017	0.008	0.012	0.006	0.57	0.002
COc1ccc2c(c1)CC(n1c(C)nc3ccc(-c4cc(N)nc(N)c4)nc31)C2 (stereo not drawn) [Example 98, 4-[3-(5-methoxy-2,3-dihydro-1H-inden-2-yl)-2-methyl-3H-imidazo[4,5-b]pyridin-5-yl]pyridine-2,6-diamine]	0.019	0.009	0.015	0.007		0.004
Cc1nc2ccc(-c3cc(N)nc(N)c3)nc2n1C1CC(c2ccccc2)C1 (stereo not drawn) [Example 100, 4-[2-methyl-3-(3-phenylcyclobutyl)-3H-imidazo[4,5-b]pyridin-5-yl]pyridine-2,6-diamine]	0.006		0.014	0.006		
Cc1nc2ccc(-c3cc(N)nc(N)c3)nc2n1CCC(F)(F)F [Example 108, 4-[2-methyl-3-(3,3,3-trifluoropropyl)-3H-imidazo[4,5-b]pyridin-5-yl]pyridine-2,6-diamine]	0.109		0.026	0.017		
Cc1nc2ccc(-c3cc(N)nc(N)c3)nc2n1CC1Cc2ccccc2C1 [Example 114, 4-[3-(2,3-dihydro-1H-inden-2-ylmethyl)-2-methyl-3H-imidazo[4,5-b]pyridin-5-yl]pyridine-2,6-diamine]	0.039	0.009	0.019	0.005		0.005
CCCCc1nc2ccc(-c3cc(N)nc(N)c3)nc2n1C1CCCC1 [Example 145, 4-(2-butyl-3-cyclopentyl-3H-imidazo[4,5-b]pyridin-5-yl)pyridine-2,6-diamine]	0.171		0.115	0.03		
CCCCn1c(CCC)nc2ccc(-c3cc(N)nc(N)c3)nc21 [Example 161, 4-(3-butyl-2-propyl-3H-imidazo[4,5-b]pyridin-5-yl)pyridine-2,6-diamine]	0.143	0.005	0.218	0.02	> 10	
Cc1nc2ccc(-c3cc(N)nc(N)c3)nc2n1CCOc1cccc(Cl)n1 [Example 165, 4-(3-{2-[(6-chloropyridin-2-yl)oxy]ethyl}-2-methyl-3H-imidazo[4,5-b]pyridin-5-yl)pyridine-2,6-diamine]	0.026	0.005	0.015	0.009		0.003
Cc1nc2ccc(-c3cc(N)nc(N)c3)nc2n1CCOc1cccc(Br)n1 [Example 168, 4-(3-{2-[(6-bromopyridin-2-yl)oxy]ethyl}-2-methyl-3H-imidazo[4,5-b]pyridin-5-yl)pyridine-2,6-diamine]	0.032	0.006	0.015	0.011		0.002
